PubChem BioAssay AID1918958 (Molecular Pharmacology Branch, DTP, NCI, 2023)

System: NCI-H196 complex spheroid viability
Test: Anticancer human tumor NCI-H196 cell line growth inhibition [LSD1];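 note: spheroids exposed to agents for 7 days before readout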;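 for viability, T/C: 100% = DMSO vehicle control viability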
Conditions: for IC50: curve of first compound; for viability, T/C: stronger effect = lower value
How it was run: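 Complex spheroids of tumor cells with HUVEC and human MSCs, exposed to iadademstat combined with other agents. Each agent tested in half-log steps from near clinical Cmax (else 10 microM top), DMSO ≤0.25%.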

[1] = second compound 0.1 µM, first compound 0.0316 µM
[2] = second compound 0.1 µM, first compound 0.1 µM
[3] = second compound 0.1 µM, first compound 0.316 µM
[4] = second compound 0.1 µM, first compound 1 µM
[5] = second compound 0.316 µM, first compound 0.0316 µM
[6] = second compound 0.316 µM, first compound 0.1 µM
[7] = second compound 0.316 µM, first compound 0.316 µM
[8] = second compound 0.316 µM, first compound 1 µM
[9] = second compound 1 µM, first compound 0.0316 µM
[10] = second compound 1 µM, first compound 0.1 µM
[11] = second compound 1 µM, first compound 0.316 µM
[12] = second compound 1 µM, first compound 1 µM
[13] = second compound 3.16 µM, first compound 0.0316 µM
[14] = second compound 3.16 µM, first compound 0.1 µM
[15] = second compound 3.16 µM, first compound 0.316 µM
[16] = second compound 3.16 µM, first compound 1 µM
[17] = second compound 10 µM, first compound 0.0316 µM
[18] = second compound 10 µM, first compound 0.1 µM
[19] = second compound 10 µM, first compound 0.316 µM
[20] = second compound 10 µM, first compound 1 µM

COc1ccc([C@@H](O)c2cc(-c3ncnc4cc(N5CCOCC5)ccc34)c(F)cc2Cl)nn1 + NC1CCC(NC2CC2c2ccccc2)CC1
IC50 (second compound 0.1 µM): > 10000 nM | IC50 (second compound 0.316 µM): > 10000 nM | IC50 (second compound 1 µM): > 10000 nM | IC50 (second compound 3.16 µM): > 10000 nM | IC50 (second compound 10 µM): > 10000 nM | viability, T/C [1]: 102% | viability, T/C [2]: 99.2% | viability, T/C [3]: 88.9% | viability, T/C [4]: 81.3% | viability, T/C (second compound 0.1 µM, first compound 3.16 µM): 72.7% | viability, T/C (second compound 0.1 µM, first compound 10 µM): 53.7% | viability, T/C [5]: 103% | viability, T/C [6]: 102% | viability, T/C [7]: 96.6% | viability, T/C [8]: 85.5% | viability, T/C (second compound 0.316 µM, first compound 3.16 µM): 73.4% | viability, T/C (second compound 0.316 µM, first compound 10 µM): 54.6% | viability, T/C [9]: 95.7% | viability, T/C [10]: 105% | viability, T/C [11]: 93.4% | viability, T/C [12]: 90.5% | viability, T/C (second compound 1 µM, first compound 3.16 µM): 76% | viability, T/C (second compound 1 µM, first compound 10 µM): 58% | viability, T/C [13]: 103% | viability, T/C [14]: 103% | viability, T/C [15]: 88.9% | viability, T/C [16]: 88.9% | viability, T/C (second compound 3.16 µM, first compound 3.16 µM): 69.5% | viability, T/C (second compound 3.16 µM, first compound 10 µM): 54% | viability, T/C [17]: 102% | viability, T/C [18]: 104% | viability, T/C [19]: 89.8% | viability, T/C [20]: 84.2% | viability, T/C (second compound 10 µM, first compound 3.16 µM): 73.3% | viability, T/C (second compound 10 µM, first compound 10 µM): 57%

Nc1ncn(C2CC(O)C(CO)S2)c(=O)n1 (stereo not given) + NC1CCC(NC2CC2c2ccccc2)CC1
IC50 (second compound 0.1 µM): > 300 nM | IC50 (second compound 0.316 µM): > 300 nM | IC50 (second compound 1 µM): > 300 nM | IC50 (second compound 3.16 µM): > 300 nM | IC50 (second compound 10 µM): > 300 nM | viability, T/C (second compound 0.1 µM, first compound 0.000949 µM): 112% | viability, T/C (second compound 0.1 µM, first compound 0.003 µM): 104% | viability, T/C (second compound 0.1 µM, first compound 0.00949 µM): 121% | viability, T/C (second compound 0.1 µM, first compound 0.03 µM): 118% | viability, T/C (second compound 0.1 µM, first compound 0.0949 µM): 122% | viability, T/C (second compound 0.1 µM, first compound 0.3 µM): 118% | viability, T/C (second compound 0.316 µM, first compound 0.000949 µM): 103% | viability, T/C (second compound 0.316 µM, first compound 0.003 µM): 102% | viability, T/C (second compound 0.316 µM, first compound 0.00949 µM): 108% | viability, T/C (second compound 0.316 µM, first compound 0.03 µM): 114% | viability, T/C (second compound 0.316 µM, first compound 0.0949 µM): 112% | viability, T/C (second compound 0.316 µM, first compound 0.3 µM): 127% | viability, T/C (second compound 1 µM, first compound 0.000949 µM): 93.7% | viability, T/C (second compound 1 µM, first compound 0.003 µM): 105% | viability, T/C (second compound 1 µM, first compound 0.00949 µM): 113% | viability, T/C (second compound 1 µM, first compound 0.03 µM): 109% | viability, T/C (second compound 1 µM, first compound 0.0949 µM): 109% | viability, T/C (second compound 1 µM, first compound 0.3 µM): 110% | viability, T/C (second compound 3.16 µM, first compound 0.000949 µM): 96.4% | viability, T/C (second compound 3.16 µM, first compound 0.003 µM): 106% | viability, T/C (second compound 3.16 µM, first compound 0.00949 µM): 105% | viability, T/C (second compound 3.16 µM, first compound 0.03 µM): 124% | viability, T/C (second compound 3.16 µM, first compound 0.0949 µM): 107% | viability, T/C (second compound 3.16 µM, first compound 0.3 µM): 108% | viability, T/C (second compound 10 µM, first compound 0.000949 µM): 108% | viability, T/C (second compound 10 µM, first compound 0.003 µM): 105% | viability, T/C (second compound 10 µM, first compound 0.00949 µM): 113% | viability, T/C (second compound 10 µM, first compound 0.03 µM): 118% | viability, T/C (second compound 10 µM, first compound 0.0949 µM): 111% | viability, T/C (second compound 10 µM, first compound 0.3 µM): 106%

O=C(C=Cn1cnc(-c2cc(C(F)(F)F)cc(C(F)(F)F)c2)n1)NNc1cnccn1 + NC1CCC(NC2CC2c2ccccc2)CC1
IC50 (second compound 0.1 µM): < 3.16 nM | IC50 (second compound 0.316 µM): < 3.16 nM | IC50 (second compound 1 µM): < 3.16 nM | IC50 (second compound 3.16 µM): < 3.16 nM | IC50 (second compound 10 µM): < 3.16 nM | viability, T/C (second compound 0.1 µM, first compound 0.00316 µM): 32.9% | viability, T/C (second compound 0.1 µM, first compound 0.01 µM): 27.2% | viability, T/C [1]: 22.3% | viability, T/C [2]: 15.1% | viability, T/C [3]: 14.4% | viability, T/C [4]: 9.29% | viability, T/C (second compound 0.316 µM, first compound 0.00316 µM): 31.6% | viability, T/C (second compound 0.316 µM, first compound 0.01 µM): 25.9% | viability, T/C [5]: 19.7% | viability, T/C [6]: 14.1% | viability, T/C [7]: 14.5% | viability, T/C [8]: 10.1% | viability, T/C (second compound 1 µM, first compound 0.00316 µM): 38% | viability, T/C (second compound 1 µM, first compound 0.01 µM): 25.1% | viability, T/C [9]: 22.3% | viability, T/C [10]: 17.1% | viability, T/C [11]: 15.7% | viability, T/C [12]: 10.4% | viability, T/C (second compound 3.16 µM, first compound 0.00316 µM): 30.6% | viability, T/C (second compound 3.16 µM, first compound 0.01 µM): 29.2% | viability, T/C [13]: 21.1% | viability, T/C [14]: 17.1% | viability, T/C [15]: 13.9% | viability, T/C [16]: 12.9% | viability, T/C (second compound 10 µM, first compound 0.00316 µM): 38.2% | viability, T/C (second compound 10 µM, first compound 0.01 µM): 25.6% | viability, T/C [17]: 16% | viability, T/C [18]: 19.1% | viability, T/C [19]: 14.5% | viability, T/C [20]: 11.9%
